Test results: the supplement of paper PMC5908809

Legend:
[1] = test system: normal NK cells expanded with K562-aAPC; test: percent inhibition of viability; higher = more inhibition; conditions: 72 h, IL-2 2.5 ng/mL
Protocol: (§1)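 Drug sensitivity and resistance testing on K562-aAPC-expanded normal NK cells: 5 concentrations (10-fold steps over a 10,000-fold range), 72 h at 37 °C, viability by CellTiter-Glo normalised to DMSO and benzethonium chloride controls; DSS from the fitted curve.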

DERL-7 (IL-2 2.5 ng/mL) [2] = test: as above; conditions: 72 h
IMC-1 (IL-2 20 ng/mL) [3] = test: as above; conditions: 72 h
KAI3 (IL-2 2.5 ng/mL) [4] = test: as above; conditions: 72 h
KHYG-1 (IL-2 2.5 ng/mL) [5] = test: as above; conditions: 72 h
NK-92 (IL-2 2.5 ng/mL) [6] = test: as above; conditions: 72 h
NK-YS (IL-2 2.5 ng/mL) [7] = test: as above; conditions: 72 h
NKL (IL-2 2.5 ng/mL) [8] = test: as above; conditions: 72 h
SNK-6 (IL-2 2.5 ng/mL) [9] = test: as above; conditions: 72 h
YT (IL-2 2.5 ng/mL) [10] = test: as above; conditions: 72 h
[11] = test system: normal primary NK cells, pool 1 (3 donors) (IL-2 2.5 ng/mL); test: as above; conditions: 72 h
[12] = test system: normal primary NK cells, pool 1 (3 donors), resting (IL-2 0 ng/mL); test: as above; conditions: 72 h
[13] = test system: normal primary NK cells, pool 2 (3 donors) (IL-2 2.5 ng/mL); test: as above; conditions: 72 h
[14] = test system: normal primary NK cells, pool 3 (3 donors) (IL-2 2.5 ng/mL); test: as above; conditions: 72 h
[15] = test system: normal NK cells expanded with K562-aAPC; test: drug sensitivity score (DSS) (DSS units); higher = more sensitive; extreme values may be limits of the assay; conditions: 72 h; IL-2 2.5 ng/mL
Protocol: as §1

DERL-7 (IL-2 2.5 ng/mL) [16] = test: as above; conditions: 72 h
IMC-1 (IL-2 20 ng/mL) [17] = test: as above; conditions: 72 h
KAI3 (IL-2 2.5 ng/mL) [18] = test: as above; conditions: 72 h
KHYG-1 (IL-2 2.5 ng/mL) [19] = test: as above; conditions: 72 h
NK-92 (IL-2 2.5 ng/mL) [20] = test: as above; conditions: 72 h
NK-YS (IL-2 2.5 ng/mL) [21] = test: as above; conditions: 72 h
NKL (IL-2 2.5 ng/mL) [22] = test: as above; conditions: 72 h
SNK-6 (IL-2 2.5 ng/mL) [23] = test: as above; conditions: 72 h
YT (IL-2 2.5 ng/mL) [24] = test: as above; conditions: 72 h
[25] = test system: normal primary NK cells, pool 1 (3 donors) (IL-2 2.5 ng/mL); test: as above; conditions: 72 h
[26] = test system: normal primary NK cells, pool 1 (3 donors), resting (IL-2 0 ng/mL); test: as above; conditions: 72 h
[27] = test system: normal primary NK cells, pool 2 (3 donors) (IL-2 2.5 ng/mL); test: as above; conditions: 72 h
[28] = test system: normal primary NK cells, pool 3 (3 donors) (IL-2 2.5 ng/mL); test: as above; conditions: 72 h

CC(=O)Nc1cccc(-n2c(=O)n(C3CC3)c(=O)c3c(Nc4ccc(I)cc4F)n(C)c(=O)c(C)c32)c1 [Trametinib] (max concentration tested 250 nM)
percent inhibition of viability ([1]; 0.025 nM): -1.03% | percent inhibition of viability ([1]; 0.25 nM): -2.71% | percent inhibition of viability ([1]; 2.5 nM): -0.52% | percent inhibition of viability ([1]; 25 nM): -0.63% | percent inhibition of viability ([1]; 250 nM): 1.09% | percent inhibition of viability (DERL-7 (IL-2 2.5 ng/mL) [2]; 0.025 nM): 1.02% | percent inhibition of viability (DERL-7 (IL-2 2.5 ng/mL) [2]; 0.25 nM): 7.15% | percent inhibition of viability (DERL-7 (IL-2 2.5 ng/mL) [2]; 2.5 nM): 24.3% | percent inhibition of viability (DERL-7 (IL-2 2.5 ng/mL) [2]; 25 nM): 38.5% | percent inhibition of viability (DERL-7 (IL-2 2.5 ng/mL) [2]; 250 nM): 49.2% | percent inhibition of viability (IMC-1 (IL-2 20 ng/mL) [3]; 0.025 nM): -7.84% | percent inhibition of viability (IMC-1 (IL-2 20 ng/mL) [3]; 0.25 nM): -6.23% | percent inhibition of viability (IMC-1 (IL-2 20 ng/mL) [3]; 2.5 nM): -12.6% | percent inhibition of viability (IMC-1 (IL-2 20 ng/mL) [3]; 25 nM): -5.74% | percent inhibition of viability (IMC-1 (IL-2 20 ng/mL) [3]; 250 nM): -11.9% | percent inhibition of viability (KAI3 (IL-2 2.5 ng/mL) [4]; 0.025 nM): -0.65% | percent inhibition of viability (KAI3 (IL-2 2.5 ng/mL) [4]; 0.25 nM): 10.4% | percent inhibition of viability (KAI3 (IL-2 2.5 ng/mL) [4]; 2.5 nM): 14.7% | percent inhibition of viability (KAI3 (IL-2 2.5 ng/mL) [4]; 25 nM): 17.6% | percent inhibition of viability (KAI3 (IL-2 2.5 ng/mL) [4]; 250 nM): 21.2% | percent inhibition of viability (KHYG-1 (IL-2 2.5 ng/mL) [5]; 0.025 nM): -1.89% | percent inhibition of viability (KHYG-1 (IL-2 2.5 ng/mL) [5]; 0.25 nM): -0.88% | percent inhibition of viability (KHYG-1 (IL-2 2.5 ng/mL) [5]; 2.5 nM): 17.2% | percent inhibition of viability (KHYG-1 (IL-2 2.5 ng/mL) [5]; 25 nM): 47.1% | percent inhibition of viability (KHYG-1 (IL-2 2.5 ng/mL) [5]; 250 nM): 54.2% | percent inhibition of viability (NK-92 (IL-2 2.5 ng/mL) [6]; 0.025 nM): -8.96% | percent inhibition of viability (NK-92 (IL-2 2.5 ng/mL) [6]; 0.25 nM): -8.36% | percent inhibition of viability (NK-92 (IL-2 2.5 ng/mL) [6]; 2.5 nM): -15.1% | percent inhibition of viability (NK-92 (IL-2 2.5 ng/mL) [6]; 25 nM): -31.2% | percent inhibition of viability (NK-92 (IL-2 2.5 ng/mL) [6]; 250 nM): -2.14% | percent inhibition of viability (NK-YS (IL-2 2.5 ng/mL) [7]; 0.025 nM): -3.76% | percent inhibition of viability (NK-YS (IL-2 2.5 ng/mL) [7]; 0.25 nM): 0.79% | percent inhibition of viability (NK-YS (IL-2 2.5 ng/mL) [7]; 2.5 nM): 3.16% | percent inhibition of viability (NK-YS (IL-2 2.5 ng/mL) [7]; 25 nM): 13.2% | percent inhibition of viability (NK-YS (IL-2 2.5 ng/mL) [7]; 250 nM): 9.03% | percent inhibition of viability (NKL (IL-2 2.5 ng/mL) [8]; 0.025 nM): -13.6% | percent inhibition of viability (NKL (IL-2 2.5 ng/mL) [8]; 0.25 nM): -3.27% | percent inhibition of viability (NKL (IL-2 2.5 ng/mL) [8]; 2.5 nM): 31.2% | percent inhibition of viability (NKL (IL-2 2.5 ng/mL) [8]; 25 nM): 60.9% | percent inhibition of viability (NKL (IL-2 2.5 ng/mL) [8]; 250 nM): 62.5% | percent inhibition of viability (SNK-6 (IL-2 2.5 ng/mL) [9]; 0.025 nM): 8.07% | percent inhibition of viability (SNK-6 (IL-2 2.5 ng/mL) [9]; 0.25 nM): 2.1% | percent inhibition of viability (SNK-6 (IL-2 2.5 ng/mL) [9]; 2.5 nM): -22.8% | percent inhibition of viability (SNK-6 (IL-2 2.5 ng/mL) [9]; 25 nM): -18.2% | percent inhibition of viability (SNK-6 (IL-2 2.5 ng/mL) [9]; 250 nM): -19.1% | percent inhibition of viability (YT (IL-2 2.5 ng/mL) [10]; 0.025 nM): -2.64% | percent inhibition of viability (YT (IL-2 2.5 ng/mL) [10]; 0.25 nM): -1.54% | percent inhibition of viability (YT (IL-2 2.5 ng/mL) [10]; 2.5 nM): 0.86% | percent inhibition of viability (YT (IL-2 2.5 ng/mL) [10]; 25 nM): 2.64% | percent inhibition of viability (YT (IL-2 2.5 ng/mL) [10]; 250 nM): -0.71% | percent inhibition of viability ([11]; 0.025 nM): -8.95% | percent inhibition of viability ([11]; 0.25 nM): -7.23% | percent inhibition of viability ([11]; 2.5 nM): 10.8% | percent inhibition of viability ([11]; 25 nM): 8.62% | percent inhibition of viability ([11]; 250 nM): 17.9% | percent inhibition of viability ([12]; 0.025 nM): -7.3% | percent inhibition of viability ([12]; 0.25 nM): -4.37% | percent inhibition of viability ([12]; 2.5 nM): 3.53% | percent inhibition of viability ([12]; 25 nM): -1.6% | percent inhibition of viability ([12]; 250 nM): 4.62% | percent inhibition of viability ([13]; 0.025 nM): -4.75% | percent inhibition of viability ([13]; 0.25 nM): -6.13% | percent inhibition of viability ([13]; 2.5 nM): -1.09% | percent inhibition of viability ([13]; 25 nM): 4.26% | percent inhibition of viability ([13]; 250 nM): -5.37% | percent inhibition of viability ([14]; 0.025 nM): -14.5% | percent inhibition of viability ([14]; 0.25 nM): -14.1% | percent inhibition of viability ([14]; 2.5 nM): -12% | percent inhibition of viability ([14]; 25 nM): -11.3% | percent inhibition of viability ([14]; 250 nM): -11.4% | drug sensitivity score [15]: 0 | drug sensitivity score (DERL-7 (IL-2 2.5 ng/mL) [16]): 10.2 | drug sensitivity score (IMC-1 (IL-2 20 ng/mL) [17]): 0.89 | drug sensitivity score (KAI3 (IL-2 2.5 ng/mL) [18]): 4.13 | drug sensitivity score (KHYG-1 (IL-2 2.5 ng/mL) [19]): 10.7 | drug sensitivity score (NK-92 (IL-2 2.5 ng/mL) [20]): 0.89 | drug sensitivity score (NK-YS (IL-2 2.5 ng/mL) [21]): 1.13 | drug sensitivity score (NKL (IL-2 2.5 ng/mL) [22]): 15.5 | drug sensitivity score (SNK-6 (IL-2 2.5 ng/mL) [23]): 0 | drug sensitivity score (YT (IL-2 2.5 ng/mL) [24]): 0 | drug sensitivity score [25]: 1.13 | drug sensitivity score [26]: 0 | drug sensitivity score [27]: 0 | drug sensitivity score [28]: 0.89
